Data published in the NIST ThermoML archive (doi:10.1016/j.jct.2015.02.009).

Key:
[1] = for molar entropy: 101.33 kPa, Vacuum adiabatic calorimetry; for Triple point temperature: Adiabatic calorimetry
[2] = Molar enthalpy of transition or fusion; details: Crystal 1; Adiabatic calorimetry
[3] = molar heat capacity at saturation pressure; details: Vacuum adiabatic calorimetry

O=c1c2ccccc2oc2ccccc12 [9H-xanthen-9-one]
Details | molar entropy, [1] [J/K/mol] | molar heat capacity, [3] [J/K/mol]
4.948 K, Crystal 2 | – | 0.4157
5 K, Crystal 2 | 0.1497 | 0.449
5.884 K, Crystal 2 | – | 0.7317
6.774 K, Crystal 2 | – | 1.131
7.756 K, Crystal 2 | – | 1.68
8.886 K, Crystal 2 | – | 2.494
10 K, Crystal 2 | 1.189 | 3.475
10.01 K, Crystal 2 | – | 3.492
11.15 K, Crystal 2 | – | 4.606
12.42 K, Crystal 2 | – | 5.895
13.82 K, Crystal 2 | – | 7.574
15.41 K, Crystal 2 | – | 9.42
17.21 K, Crystal 2 | – | 11.62
19.14 K, Crystal 2 | – | 14.03
20 K, Crystal 2 | 7.009 | 15.07
21.27 K, Crystal 2 | – | 16.62
23.69 K, Crystal 2 | – | 19.61
26.45 K, Crystal 2 | – | 22.93
29.52 K, Crystal 2 | – | 26.48
30 K, Crystal 2 | 15.42 | 27.03
32.99 K, Crystal 2 | – | 30.34
36.76 K, Crystal 2 | – | 34.3
40 K, Crystal 2 | 24.67 | 37.43
40.81 K, Crystal 2 | – | 38.18
45.21 K, Crystal 2 | – | 42.3
49.99 K, Crystal 2 | – | 46.39
50 K, Crystal 2 | 34.01 | 46.4
55.3 K, Crystal 2 | – | 50.63
60 K, Crystal 2 | 43.17 | 54.19
61.27 K, Crystal 2 | – | 55.12
67.42 K, Crystal 2 | – | 59.55
70 K, Crystal 2 | 52.07 | 61.32
74.05 K, Crystal 2 | – | 64.05
80 K, Crystal 2 | 60.7 | 68.05
81.42 K, Crystal 2 | – | 68.99
89.28 K, Crystal 2 | – | 74.02
90 K, Crystal 2 | 69.08 | 74.5
97.77 K, Crystal 2 | – | 79.43
100 K, Crystal 2 | 77.26 | 80.83
107.1 K, Crystal 2 | – | 85.28
116.86 K, Crystal 2 | – | 91.41
120 K, Crystal 2 | 93.11 | 93.39
126.79 K, Crystal 2 | – | 97.69
136.84 K, Crystal 2 | – | 104.11
140 K, Crystal 2 | 108.46 | 106.16
146.73 K, Crystal 2 | – | 110.54
156.73 K, Crystal 2 | – | 117.13
160 K, Crystal 2 | 123.49 | 119.31
166.81 K, Crystal 2 | – | 123.9
176.93 K, Crystal 2 | – | 130.77
180 K, Crystal 2 | 138.32 | 132.89
187.03 K, Crystal 2 | – | 137.78
197.16 K, Crystal 2 | – | 144.95
200 K, Crystal 2 | 153.04 | 146.97
207.33 K, Crystal 2 | – | 152.23
217.49 K, Crystal 2 | – | 159.6
220 K, Crystal 2 | 167.73 | 161.45
227.64 K, Crystal 2 | – | 167.1
237.79 K, Crystal 2 | – | 174.59
240 K, Crystal 2 | 182.41 | 176.23
247 K, Crystal 2 | – | 181.5
257.21 K, Crystal 2 | – | 189.32
260 K, Crystal 2 | 197.12 | 191.47
267.43 K, Crystal 2 | – | 197.24
271.49 K, Crystal 2 | – | 200.45
277.66 K, Crystal 2 | – | 205.34
280 K, Crystal 2 | 211.88 | 207.28
281.58 K, Crystal 2 | – | 208.68
285.78 K, Crystal 2 | – | 211.94
287.89 K, Crystal 2 | – | 213.62
287.93 K, Crystal 2 | – | 213.81
290.92 K, Crystal 2 | – | 216.28
293.89 K, Crystal 2 | – | 218.7
296.84 K, Crystal 2 | – | 221.36
298.15 K, Crystal 2 | 225.36 | 222.59
299.77 K, Crystal 2 | – | 224.22
300 K, Crystal 2 | 226.74 | 224.32
302.68 K, Crystal 2 | – | 226.91
304.5 K, Crystal 1 | 230.12 | 217.42
304.5 K, Crystal 2 | 230.12 | 228.82
308.54 K, Crystal 1 | – | 220.52
314.52 K, Crystal 1 | – | 224.74
319.05 K, Crystal 1 | – | 228.22
320 K, Crystal 1 | 241.19 | 228.78
329.4 K, Crystal 1 | – | 234.88
339.75 K, Crystal 1 | – | 241.96
340 K, Crystal 1 | 255.47 | 242.13
350.05 K, Crystal 1 | – | 248.91
360 K, Crystal 1 | 269.69 | 255.59
360.25 K, Crystal 1 | – | 255.74
370.5 K, Crystal 1 | – | 262.7
380 K, Crystal 1 | 283.87 | 269.01
380.94 K, Crystal 1 | – | 269.61
391.39 K, Crystal 1 | – | 276.39
400 K, Crystal 1 | 298 | 281.96
401.81 K, Crystal 1 | – | 283.12
403.54 K, Crystal 1 | – | 284.25
411.03 K, Crystal 1 | – | 289
412.19 K, Crystal 1 | – | 289.73
416.69 K, Crystal 1 | – | 292.58
419.61 K, Crystal 1 | – | 294.44
420 K, Crystal 1 | 312.06 | 294.67
422.49 K, Crystal 1 | – | 296.32
426.25 K, Crystal 1 | – | 298.77
426.89 K, Crystal 1 | – | 299.05
428.37 K, Crystal 1 | – | 300.06
432.6 K, Crystal 1 | – | 302.78
434.54 K, Crystal 1 | – | 304.24
436.39 K, Crystal 1 | – | 305.61
436.87 K, Crystal 1 | – | 305.89
437 K, Crystal 1 | – | 305.66
438.34 K, Crystal 1 | – | 306.66
440 K, Crystal 1 | 326.08 | 307.81
441.53 K, Crystal 1 | – | 308.59
444.48 K, Crystal 1 | – | 310.76
448.8 K, Crystal 1 | 332.22 | 313.35
448.8 K, Liquid | 393.44 | 352.72
456.71 K, Liquid | – | 355.95
456.82 K, Liquid | – | 356.07
456.9 K, Liquid | – | 356.08
460 K, Liquid | 402.2 | 357.33
465.07 K, Liquid | – | 359.58
465.9 K, Liquid | – | 359.81
476.6 K, Liquid | – | 364.34
480 K, Liquid | 417.58 | 365.74
488.56 K, Liquid | – | 369.25
497.53 K, Liquid | – | 372.95
500 K, Liquid | 432.68 | 374.07
500.95 K, Liquid | – | 374.47
512.38 K, Liquid | – | 379.19
520 K, Liquid | 447.51 | 382.26
521.08 K, Liquid | – | 382.68

Details | mass density [kg/m3]
[1], 473 K, Liquid, Pycnometric method | 1090

[1]
Details | Triple point temperature [K]
Crystal 1 | 448.8
Crystal 2 | 304.5

Details | Molar enthalpy of transition or fusion [kcal/mol]
[2] | 6.567
